Among the data in PubChem BioAssay AID1053202 (The Scripps Research Institute Molecular Screening Center, 2014) are Ki values, retold here.

The structures appear in SMILES notation. Active and inactive are the calls of the source.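 The calls were made as follows: active = Ki at or below 10 µM; inactive = Ki above 10 µM.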

The target of one test is Fibrinogen beta chain (Homo sapiens) (UniProt P02675). The experiment in a line: inhibitors of Tn6 peptide binding to fibrin DD(E), late-stage follow-up, biochemical, fluorescence polarization, Ki, set 1 (AID 1053202). As to conditions: Purified DD(E), TRITC-Tn6 peptide displacement, protein 1 µM, probe 0.05 µM. In general terms: Fluorescence polarisation rises when a labelled molecule tumbles more slowly, as on binding a larger partner.
Fibrinogen beta chain (Homo sapiens), sequence (P02675 whole entry, looked up): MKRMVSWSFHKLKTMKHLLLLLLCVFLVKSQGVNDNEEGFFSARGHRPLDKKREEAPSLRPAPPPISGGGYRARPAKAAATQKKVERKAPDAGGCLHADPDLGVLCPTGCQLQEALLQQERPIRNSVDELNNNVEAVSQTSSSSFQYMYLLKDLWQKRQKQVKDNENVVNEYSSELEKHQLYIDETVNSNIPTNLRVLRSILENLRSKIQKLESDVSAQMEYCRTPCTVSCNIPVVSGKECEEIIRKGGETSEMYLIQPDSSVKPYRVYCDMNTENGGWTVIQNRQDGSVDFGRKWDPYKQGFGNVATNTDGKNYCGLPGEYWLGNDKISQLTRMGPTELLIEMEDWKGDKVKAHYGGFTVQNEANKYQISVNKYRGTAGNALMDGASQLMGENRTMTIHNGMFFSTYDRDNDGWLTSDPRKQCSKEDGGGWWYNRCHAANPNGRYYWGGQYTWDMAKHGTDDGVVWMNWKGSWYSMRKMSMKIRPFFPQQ
Broadly, the Ki is the dissociation constant of the complex between target and ligand, obtained from inhibition or displacement. With `CCn1c(CSc2nnc(-c3ccncc3)n2CCOC)nc2cc(C(=O)O)ccc21`, the Ki is 3.75 µM.

Turning to `OCCn1c(CSc2nnc(-c3ccc4c(c3)OCO4)o2)nc2ccc(Cl)cc21`, the Ki entry is “inactive”.

On to `CCn1c(CSc2n[nH]c(N)n2)nc2cc(C(=O)O)ccc21`, for which the Ki is 5.11 µM.

Take `CCn1c(CSc2nc3ccccc3[nH]2)nc2cc(C(=O)O)ccc21`: the Ki result was “inactive”.

As for `CCn1c(CSc2nnc(-c3ccncc3)n2C)nc2cc(C(=O)O)ccc21`, the Ki is 5.1 µM.

Regarding `CCn1c(CSc2nnc3ccccn23)nc2cc(C(=O)O)ccc21`, the Ki was 2.3 µM.

Take `CCn1c(CSc2nccn2C)nc2cc(C(=O)O)ccc21`: the Ki result was “inactive”.

As to `CCn1c(CSc2ncn[nH]2)nc2cc(C(=O)O)ccc21`, the Ki result was “inactive”.

Still in this test, the particulars now being: Purified DD(E), TRITC-Tn6 peptide displacement, protein 2 µM, probe 0.1 µM.
Consider `Nc1nnc(SCc2nc3ccccc3[nH]2)s1`, for which the Ki entry is “inactive”.

In the case of `C=CCNc1nnc(SCc2nc3cc(S(=O)(=O)N(C)C)ccc3n2CCC)s1`, the Ki result was “inactive”.

In the case of `CCn1c(CSc2nncn2C)nc2cc(C(=O)O)ccc21`, the Ki was 5.01 µM.

Consider `CCn1c(CSc2nc3ccccc3c(=O)n2-c2ccccc2F)nc2cc(C(=O)O)ccc21`, for which the Ki result is “inactive”.

For the compound `CCCCn1c(CSc2nnc(-c3ccccc3F)n2C)nc2cc(S(N)(=O)=O)ccc21`, the Ki result was “inactive”.

Regarding `COc1ccc2nc(SCc3nc4ccc(Cl)cc4n3CCO)[nH]c2c1`, the Ki entry was “inactive”.

On to `CCn1c(CSc2n[nH]c(-c3ccccc3)n2)nc2cc(S(=O)(=O)N3CCCCC3)ccc21`, for which the Ki entry is “inactive”.

In the case of `CCCn1c(SCc2nc3cc(C(=O)O)ccc3n2CC)nc2ccccc2c1=O`, the Ki is 1.34 µM.

With `CCn1c(CSc2nccn2C)nc2cc(S(=O)(=O)N3CCCCC3)ccc21`, the Ki is 5.1 µM.

In the case of `CCn1c(CSc2nnc(N)s2)nc2cc(F)ccc21`, the Ki was 2.3 µM.

With `CCCn1c(SCc2nc3cc(S(=O)(=O)N4CCOCC4)ccc3n2CCC)n[nH]c1=O`, the Ki is 5.1 µM.

Regarding `C=CCn1c(SCc2nc3ccc(Cl)cc3n2CCO)nnc1-c1ccc(Cl)cc1`, the Ki entry is “inactive”.

For `CCCCn1c(CSc2n[nH]c(=O)n2CCC)nc2cc(S(N)(=O)=O)ccc21`, the Ki entry is “inactive”.

Regarding `CCn1c(CSc2nnc(COc3ccc(OC)cc3)n2-c2ccccc2F)nc2cc(C(=O)O)ccc21`, the Ki is 5.6 µM.

Consider `CCn1c(CSc2nnnn2C(C)C)nc2cc(C(=O)O)ccc21`, for which the Ki entry is “inactive”.

For `CCn1c(CSc2nnc(Nc3ccccc3F)s2)nc2cc(C(=O)O)ccc21`, the Ki was 2.82 µM.

As to `CCCCn1c(CSc2nnc(-c3ccco3)n2C)nc2cc(S(N)(=O)=O)ccc21`, the Ki entry is “inactive”.

In the case of `CCn1c(CSc2nc3sc4c(c3c(=O)n2CCOC)CCCC4)nc2cc(C(=O)O)ccc21`, the Ki entry was “inactive”.

`CCn1c(CSc2n[nH]c(N)n2)nc2cc(F)ccc21`: the Ki entry is “inactive”.

Take `OCCn1c(CSc2nc3ccccc3o2)nc2ccc(Cl)cc21`: the Ki entry is “inactive”.

As to `Nn1cc(-c2ccccc2)nc1SCc1nc2ccc(Cl)cc2n1CCO`, the Ki result is “inactive”.

In the case of `CCn1c(CSc2ncnc3sc(C)c(C)c23)nc2cc(C(=O)O)ccc21`, the Ki result was “inactive”.

For `CCn1c(CSc2nc(C3CC3)n(-c3ccccc3)n2)nc2cc(S(=O)(=O)N(C)C)ccc21`, the Ki is 2.46 µM.

As for `CCn1c(CSc2nnc(-c3ccoc3C)o2)nc2cc(S(=O)(=O)N(C)C)ccc21`, the Ki result was “inactive”.

For `CCCCn1c(CSc2nc3ccccc3[nH]2)nc2cc(S(N)(=O)=O)ccc21`, the Ki entry was “inactive”.

Turning to `CCn1c(CSc2ccc(NC(C)=O)cc2)nc2cc(C(=O)O)ccc21`, the Ki entry was “inactive”.

Take `CCn1c(CSc2nc3ccccc3s2)nc2cc(C(=O)O)ccc21`: the Ki is 4.57 µM.

As to `CCn1c(CSc2nnnn2-c2ccccc2)nc2cc(C(=O)O)ccc21`, the Ki entry was “inactive”.

Take `CCCCn1c(CSc2nnc(-c3ccccc3F)n2N)nc2cc(S(N)(=O)=O)ccc21`: the Ki result was “inactive”.
